Results filed as inconclusive are left out. Activity calls are given as the source filed them. How the calls were made is not given here.
Target: Replicative DNA helicase DnaB (Mycobacterium tuberculosis (strain ATCC 25618 / H37Rv)) (UniProt P9WMR3)
Test: DnaB intein splicing inhibitors, dose response, biochemical, M. tuberculosis H37Rv, cell-free fluorescence (AID 449749)

Replicative DNA helicase DnaB (Mycobacterium tuberculosis (strain ATCC 25618 / H37Rv)), sequence (P9WMR3 whole entry, looked up): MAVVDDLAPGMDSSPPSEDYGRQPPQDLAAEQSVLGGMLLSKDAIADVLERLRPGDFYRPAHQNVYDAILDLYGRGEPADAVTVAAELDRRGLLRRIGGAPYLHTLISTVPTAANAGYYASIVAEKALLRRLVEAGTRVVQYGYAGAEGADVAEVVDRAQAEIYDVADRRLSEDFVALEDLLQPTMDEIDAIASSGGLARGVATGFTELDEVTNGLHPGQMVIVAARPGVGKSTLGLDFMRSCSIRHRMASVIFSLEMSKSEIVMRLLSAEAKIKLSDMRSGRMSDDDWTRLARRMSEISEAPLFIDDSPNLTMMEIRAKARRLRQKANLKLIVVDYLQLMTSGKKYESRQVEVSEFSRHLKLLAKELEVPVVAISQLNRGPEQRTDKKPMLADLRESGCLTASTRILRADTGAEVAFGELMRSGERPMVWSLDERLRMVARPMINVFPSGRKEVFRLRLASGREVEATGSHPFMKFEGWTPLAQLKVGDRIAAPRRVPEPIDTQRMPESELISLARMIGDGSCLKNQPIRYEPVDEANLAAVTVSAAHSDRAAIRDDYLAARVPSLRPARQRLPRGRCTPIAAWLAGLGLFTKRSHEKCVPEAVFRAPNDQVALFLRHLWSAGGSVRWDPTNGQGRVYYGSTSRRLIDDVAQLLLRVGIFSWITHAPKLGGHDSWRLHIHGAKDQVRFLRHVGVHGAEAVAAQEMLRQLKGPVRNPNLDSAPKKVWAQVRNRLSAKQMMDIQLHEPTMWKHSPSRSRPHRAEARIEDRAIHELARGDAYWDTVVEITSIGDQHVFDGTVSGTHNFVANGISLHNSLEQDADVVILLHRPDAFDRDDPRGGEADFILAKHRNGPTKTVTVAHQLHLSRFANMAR

| Compound | AC50 |
| --- | --- |
| COc1ccc2ccc3c(c2c1)N=C[C@]1(O3)N(C)c2ccccc2C1(C)C | > 38 µM (inactive) |
| Oc1cc(O)c2c(c1)O[C@H](c1ccc(O)c(O)c1)[C@H](O)C2 | > 38 µM (inactive) |
| Cc1[nH][nH]c(=O)c1[C@@H](c1ccccc1[N+](=O)[O-])C(C#N)C#N | > 38 µM (inactive) |
| Cc1[nH][nH]c(=O)c1C(c1ccccc1[N+](=O)[O-])C(C#N)C#N (centres undefined) | > 12 µM (inactive) |

— PubChem BioAssay AID449749 (Broad Institute, 2010)
